Measured values taken from patent US6423519B1, “Compositions and methods for inhibiting fungal growth” (GPC Biotech Inc., priority 1998, dated 2002).
Where two headings read alike, the source gives them in different places. Peptide text beside a SMILES is read from it.

Legend:
C. albicans GGPTase = target: T1, C. albicans GGPTase (Candida albicans, UniProt Q8J224+Q9Y764); assay: biochemical; conditions: read-out: IC50 (nM) Ca GG
T1 sequence (Q9Y764 1-398): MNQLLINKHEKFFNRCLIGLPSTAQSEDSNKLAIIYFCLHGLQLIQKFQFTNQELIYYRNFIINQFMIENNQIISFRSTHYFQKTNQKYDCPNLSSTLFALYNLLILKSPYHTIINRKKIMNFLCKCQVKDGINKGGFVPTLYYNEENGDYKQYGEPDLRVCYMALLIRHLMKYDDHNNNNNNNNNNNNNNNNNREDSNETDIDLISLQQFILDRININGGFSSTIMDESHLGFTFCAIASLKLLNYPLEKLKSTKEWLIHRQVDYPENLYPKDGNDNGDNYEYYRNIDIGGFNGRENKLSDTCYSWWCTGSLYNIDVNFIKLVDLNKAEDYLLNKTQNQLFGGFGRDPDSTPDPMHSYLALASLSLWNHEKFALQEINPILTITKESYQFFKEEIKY
T1 sequence (Q8J224 1-306): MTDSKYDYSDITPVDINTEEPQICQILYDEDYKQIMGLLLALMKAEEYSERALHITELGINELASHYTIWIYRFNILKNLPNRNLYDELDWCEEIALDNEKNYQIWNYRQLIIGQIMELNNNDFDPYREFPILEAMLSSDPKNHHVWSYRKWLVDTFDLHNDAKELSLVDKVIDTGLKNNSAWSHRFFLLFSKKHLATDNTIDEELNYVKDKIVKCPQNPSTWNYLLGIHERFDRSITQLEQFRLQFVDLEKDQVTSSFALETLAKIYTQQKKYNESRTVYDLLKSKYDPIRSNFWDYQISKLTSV
Experimental: Plate test compounds (10 μL per well) at predetermined concentration in 50% DMSO. For background control (blank) and reaction control (negative), add 10 μL of 200 μM GGPP and 10 μL 50% DMSO, respectively. Prepare assay buffer: 50 mM Tris, pH7.5, 20 mM KCL, 5 mM MgCl2, 5 μM ZnCl2, 0.5 mM Zw(3-14), 2 mM DTT and 0.1 mg/mL BSA.
Add 20 μL of C. albicans GGPTase and ^3H-GGPP in assay buffer to test compound. Preincubate enzyme and ^3H-GGPP with test compound for 15 minutes at room temperature. Add 20 μL C. albicans Rho in assay buffer. Incubate for 30 minutes at room temperature. Final assay conditions are 2 nM C. albicans GGPTase, 250 nM ^3H-GGPP and 250 nM C. albicans Rho.
Add 100 μL 15 mM GGPP, 50 mM Tris, pH7.0 and 2% BSA to quench reaction. Transfer reaction to Nickel chelate FlashPlate. Allow his-tagged C. albcians Rho to capture onto plate. Rinse plate 1× with 200 μL 20 mM Tris, pH7.0. Read in TOPCOUNT.

human GGTase = human GGTase (Homo sapiens, UniProt P53609); assay: Human GGTase inhibition (Hu GG); assay type: biochemical; conditions: read-out: IC50 (nM) Hu GG
Source text: As described below, a variety of different compounds were synthesized and tested for inhibitory activity against human and Candida GGTase. Exemplary synthesis schemes for generating prenyltransferase inhibitors useful in the methods and compositions of the present invention are shown in FIGS. 1-56. Tables 1-5 provide Structure-Activity relationship (SAR) data for several different classes of prenyltransferase inhibitors.

Hu FT = Hu FT (Homo sapiens, UniProt P49356); assay: Human FT inhibition (Hu FT); assay type: biochemical; conditions: Table 3 Piperidine Analogs
Asp GG = Asp GG inhibition; assay type: biochemical
Cryp GG = Cryp GG inhibition; assay type: biochemical
C. albicans = assay: In vitro susceptibility testing of compounds in C. albicans (MIC); assay type: cell-based; conditions: for MIC: Candida albicans, read-out: MIC (μg/mL) C alb; for MIC (μg/mL) C alb: Table 1
Experimental: 1: Innoculate strain C. albicans strain such as SC5314 into 20 mL of the appropriate medium and incubate at 35° C. with shaking (220 rpm) overnight
2: Count the C. albicans cells in a 1:10 dilution of the overnight culture using a haemocytometer.
3: Work out the dilution factor required to bring the cell number to 1×10^3 cells/100 μL (equivalent to 1×10^4 cells/mL) then add the required volume of the overnight culture to 25 mL media in a falcon tube.
4: Vortex the diluted cells and immediately pipette 100 μL of the cell suspension to each of the required rows of a 96 well plate using the multipipettor.
5: Prepare each of the 100×stock solutions for the compounds to be tested in DMSO in the required concentration range in Eppendorf tubes.
6: The dilution series for each of the compounds may now be prepared in sequence:
For each compound—start with highest dilution. Add 10 μL compound in DMSO to the 490 μL of appropriate media. Immediately vortex and add 100 μL to the appropraite row of cells on the 96-well plate. Repeat this process for the next and subsequent concentrations of this compound before starting on the dilution series for additional compounds.
7: When complete cover the 96-well plate with an acetate sheet and incubate at 35° C. Inspect visually and record results for both plates at the 24 hr and 48 hr. The MIC corresponds to the concentration of compound where no visible growth is observed.

SMILES	IC50 (C. albicans GGPTase; Table 3 Piperidine Analogs) [nM]	IC50 (human GGTase; Table 3 Piperidine Analogs) [nM]	IC50 (Hu FT) [nM]	further results
N[C@@H](CS)C(=O)N1CCC(C(=O)N[C@@H]2C[C@H]2c2ccccc2)(c2ccccc2)CC1 (relative stereo) [Compound 53v]	< 10	> 1000	> 1000	–
N[C@@H](CS)C(=O)N1CCC(C(=O)NCc2cccc(-c3ccccc3)c2)(c2ccccc2)CC1 [Compound 53e]	< 100	> 1000	> 1000	–
N[C@@H](CS)C(=O)N1CCC(C(=O)NCCCN2CCOCC2)(c2ccccc2)CC1 [Compound 53f]	< 500	> 1000	> 1000	IC50 (Asp GG; Table 3 Piperidine Analogs): > 1000 nM; IC50 (Cryp GG; Table 3 Piperidine Analogs): > 1000 nM
N[C@@H](CS)C(=O)N1CCC(C(=O)NCCN2CCCC2)(c2ccccc2)CC1 [Compound 53g]	< 100	> 1000	> 1000	–
N[C@@H](CS)C(=O)N1CCC(C(=O)NCc2nc3ccccc3[nH]2)(c2ccccc2)CC1 [Compound 53h]	< 100	> 1000	> 1000	–
CC(C)C[C@H](NC(=O)C1(c2ccccc2)CCN(C(=O)[C@@H](N)CS)CC1)C(N)=O [Compound 53i]	< 100	< 100	> 1000	–
N[C@@H](CS)C(=O)N1CCC(C(=O)NCCCn2ccnc2)(c2ccccc2)CC1 [Compound 53j]	< 100	> 1000	> 1000	–
N[C@@H](CS)C(=O)N1CCC(C(=O)NCc2ccncc2)(c2ccccc2)CC1 [Compound 53k]	< 10	> 1000	> 1000	IC50 (Asp GG; Table 3 Piperidine Analogs): > 1000 nM; IC50 (Cryp GG; Table 3 Piperidine Analogs): > 1000 nM
N#CC1CCC(CNC(=O)C2(c3ccccc3)CCN(C(=O)[C@@H](N)CS)CC2)CC1 (stereo partly drawn) [Compound 53n]	< 100	> 1000	> 1000	–
N[C@@H](CS)C(=O)N1CCC(C(=O)NCC(=O)Nc2ccc3ccccc3c2)(c2ccccc2)CC1 [Compound 53o]	< 1000	> 1000	–	IC50 (Asp GG; Table 3 Piperidine Analogs): > 1000 nM; IC50 (Cryp GG; Table 3 Piperidine Analogs): > 1000 nM
N[C@@H](CS)C(=O)N1CCC(C(=O)NCc2cccc(OC(F)(F)F)c2)(c2ccccc2)CC1 [Compound 53p]	< 100	< 1000	> 1000	–
N[C@@H](CS)C(=O)N1CCC(C(=O)NCc2ccc3c(c2)OCO3)(c2ccccc2)CC1 [Compound 53q]	< 100	> 1000	> 1000	–
N[C@@H](CS)C(=O)N1CCC(C(=O)NCc2ccc(F)cc2F)(c2ccccc2)CC1 [Compound 53r]	< 100	> 1000	> 1000	–
COc1ccccc1CNC(=O)C1(c2ccccc2)CCN(C(=O)[C@@H](N)CS)CC1 [Compound 53u]	< 100	> 500	> 1000	–
N[C@@H](CS)C(=O)N1CCC(C(=O)NCc2cccc3ccccc23)(c2ccccc2)CC1 [Compound 53w]	< 100	> 500	> 1000	–
N[C@@H](CS)C(=O)N1CCC(C(=O)NC2c3ccccc3-c3ccccc32)(c2ccccc2)CC1 [Compound 53z]	< 100	> 1000	> 1000	IC50 (Asp GG; Table 3 Piperidine Analogs): > 1000 nM; IC50 (Cryp GG; Table 3 Piperidine Analogs): > 1000 nM
NC[C@H](NC(=O)[C@@H](N)CS)C(=O)NCc1cccc2ccccc12 [Compound 89a]	–	–	–	IC50 (C. albicans GGPTase; Table 1): < 1000 nM; IC50 (C. albicans GGPTase; Table 1 Peptide Analogs): < 1000 nM; IC50 (human GGTase; Table 1): > 1000 nM; IC50 (human GGTase; Table 1 Peptide Analogs): > 1000 nM; IC50 (Cryp GG; Table 1): > 1000 nM; IC50 (Cryp GG; Table 1 Peptide Analogs): > 1000 nM; MIC (C. albicans): > 200 µg/mL; MIC (μg/mL) C alb (C. albicans): >200 µg/mL
NC[C@H](NC(=O)[C@@H](N)CS)C(=O)NCc1cccc(-c2ccccc2)c1 [Compound 89b]	–	–	–	IC50 (C. albicans GGPTase; Table 1): < 500 nM; IC50 (C. albicans GGPTase; Table 1 Peptide Analogs): < 500 nM; IC50 (human GGTase; Table 1): > 1000 nM; IC50 (human GGTase; Table 1 Peptide Analogs): > 1000 nM; MIC (C. albicans): > 200 µg/mL; MIC (μg/mL) C alb (C. albicans): >200 µg/mL
NC[C@H](NC(=O)[C@@H](N)CS)C(=O)N1CCC(C(=O)NCc2ccncc2)(c2ccccc2)CC1 [Compound 89c]	–	–	–	IC50 (C. albicans GGPTase; Table 1): < 1000 nM; IC50 (C. albicans GGPTase; Table 1 Peptide Analogs): < 1000 nM; IC50 (human GGTase; Table 1): > 1000 nM; IC50 (human GGTase; Table 1 Peptide Analogs): > 1000 nM; IC50 (Asp GG; Table 1): > 1000 nM; IC50 (Asp GG; Table 1 Peptide Analogs): > 1000 nM; IC50 (Cryp GG; Table 1): > 1000 nM; IC50 (Cryp GG; Table 1 Peptide Analogs): > 1000 nM
NC[C@H](NC(=O)[C@@H](N)CS)C(=O)NCC(=O)Nc1ccc2ccccc2c1 [Compound 89e] (HELM PEPTIDE1{C.[NC[C@H](N[*:1])C(=O)[*:2]].G.[c1ccc2cc(N[*:1])ccc2c1]}$$$$V2.0)	–	–	–	IC50 (C. albicans GGPTase; Table 1): > 1000 nM; IC50 (C. albicans GGPTase; Table 1 Peptide Analogs): > 1000 nM; IC50 (human GGTase; Table 1): > 1000 nM; IC50 (human GGTase; Table 1 Peptide Analogs): > 1000 nM
NC[C@H](NC(=O)[C@@H](N)CS)C(=O)N1CCC(Cc2ccccc2)CC1 [Compound 89f]	–	–	–	IC50 (C. albicans GGPTase; Table 1): < 1000 nM; IC50 (C. albicans GGPTase; Table 1 Peptide Analogs): < 1000 nM; IC50 (human GGTase; Table 1): > 1000 nM; IC50 (human GGTase; Table 1 Peptide Analogs): > 1000 nM
NC[C@H](NC(=O)[C@@H](N)CS)C(=O)N1CCN(C(c2ccc(F)cc2)c2ccc(F)cc2)CC1 [Compound 89g]	–	–	–	IC50 (C. albicans GGPTase; Table 1): < 500 nM; IC50 (C. albicans GGPTase; Table 1 Peptide Analogs): < 500 nM; IC50 (human GGTase; Table 1): > 1000 nM; IC50 (human GGTase; Table 1 Peptide Analogs): > 1000 nM
CC(C)C[C@@H](C(=O)O)N(C)C(=O)Cn1c(=O)n(C2CCN(C(=O)[C@@H](N)CS)CC2)c2ccccc21 [Compound 93]	> 1000	> 1000	–	–
CC(C)C[C@H](NC(=O)C1(c2ccccc2)CCN(C(=O)[C@@H](N)CS)CC1)C(=O)N[C@@H](C)C(=O)N[C@@H](C)C(=O)O [Compound 99b] (HELM PEPTIDE1{C.[O=C(C1(c2ccccc2)CCN([*:1])CC1)[*:2]].L.A.A}$$$$V2.0)	< 200	> 500	–	–
